Experimental data taken from patent publication US7691624B2, “Cancer cell detecting devices” (Academia Sinica, priority 2003, dated 2010).

Experiments:
Hum24 quadruplex = experiment: Temperature-dependent CD analysis; format: binding, human
Source text: (§1) Eight DNA quadruplexes and their complexes with compound 2 were subjected to CD analysis. CD spectra were averaged 10 scans on a Jasco J-715 spectropolarimeter with a 2 nm bandwidth. The scan speed was 50 nm/min and the step resolution was 0.2 nm.
Further, Hum24 and its complexes with compounds 2, 4, 6, and 8 were subjected to temperature-dependent CD analysis.

LQ4 = experiment: Pre-stained gel electrophoresis selectivity and sensitivity assay; format: binding
Method: (§2) Pre-stained gels were used for selectivity assays. A 0.1 μM compound 2 solution was initially incubated with 10 μM of different DNA solutions for 10 minutes. Gel electrophoresis was then carried out in an electric field of 100 V/cm at 4° C. for 6 hours. All of the pre-stained gels were photographed under 254 nm UV light using a Bio-Rad imaging detector.
(§3) Gels pre-stained with compound 2 were used before running electrophoresis for AT, LD, GC, G10, LQ1, LQ2, LQ4, Tet12, Oxy12, Hum12, Apt, Oxy28, and Hum24. […] This third band is ascribed to be a linear tetramer of Tet12.
(§4) To study the sensitivity of DNA detection using electrophoresis described above, a solution containing 0.1 μM of compound 2 was incubated with solutions containing 2.5 to 0.005 μM of Hum24. The mixtures were then subjected to electrophoresis.

Oxy28 = experiment: as above; format: binding
Method: as §2, §3, §4

Tet12 = experiment: as above; format: binding
Method: as §2, §3, §4

[1] = system: AT, LD, GC, G10, LQ1, LQ2, LQ4, Tet12, Oxy12, Hum12, Apt, Oxy28, and Hum24; experiment: Post-stained polyacrylamide gel electrophoresis; format: binding; conditions: gels post-stained with 10 μM compound, 254 nm UV light
Method: Compound 2 and its complexes with DNA quadruplexes were further studied by polyacrylamide gel eletrophoresis (PAGE). More specifically, compound 2/DNA quadruplexes described above were analyzed by PAGE in 20% native gels in 10 mM Tris-HCI and 150 mM NaCl (pH 7.5). Gel electrophoresis was carried out in an electric field of 100 V/cm at 4° C. for 15 hours. DNA concentrations were determined by absorbencies at 260 nm and were adjusted to about 10 μM per unit structure. After photographing with UV shadowing, gels were post-stained in a solution containing 10 μM of compound 2, 10 mM Tris-HCl, and 150 mM NaCl (pH 7.5) at room temperature for 10 seconds. The gels were then rinsed by distilled water and photographed under 254 nm UV light using a digital camera.
Gels were post-stained with compound 2 after electrophoresis of AT, LD, GC, G10, LQ1, LQ2, LQ4, Tet12, Oxy12, Hum12, Apt, Oxy28, and Hum24 was complete. […] In particular, most DNAs migrated in the gel in a single band, but Tet12 and LQ4 migrated in two bands.

DNA duplex [2] = experiment: Fluorescence analysis of compound/DNA complex; format: binding; conditions: complex with a DNA duplex, λex≈430 nm
Method: (§5) Compound 2 was mixed with eleven DNAs and subjected to fluorescence analysis at λex≈430 nm, using a Hitachi F4010 spectrofluorimeter with a 2 nm bandwidth in a 1-cm cell. Fluorescence analysis was also carried out for compound 4 in the presence of Hum24. […] Further, the fluorescence peaks for a complex of compound 2 and a DNA duplex and a complex of compound 2 and a DNA quadruplex were at ˜550 nm and ˜575 nm, respectively.

DNA quadruplex [3] = experiment: Fluorescence analysis of compound/DNA complex; format: binding
Method: as §5

MRC-5 normal cells = experiment: Fluorescence of stained cells in eppendorf under LED, recorded by camera; format: cell-based, human; conditions: for Numbers of cells required to distinguish cancer cells and normal cells: Normal cells (M) MRC-5
Method: (§6) Human lung CL1-0 cancer cells or MRC-5 normal cells were incubated with 0.5 μM of Compound 2 and acridine orange (AO). After incubation in standard culture medium for 1 hour, the non-fixed cells were removed by washing the culture three times with phosphate buffered saline (PBS). The fixed cells were collected in an eppendorf by trypsinization. The eppendorf was centrifuged and then illuminated by an light emitting diode (LED) emitting excitation light with a center wavelength at 470 nm. A conventional digital camera was used to record the fluorescence. Table 1 summarizes the numbers of cells required to distinguish cancer cells from normal cells based on fluorescence emission of Compound 2 and AO recorded by a camera under different experimental conditions. Specifically, Compound 2 and AO were incubated with four different cells in eppendorf, i.e., MRC-5 normal cells, primary fibroblast, CL1-0 cancer cells, and HeLa cancer cells.

CL1-0 cancer cells = experiment: as above; format: cell-based, human; conditions: for Numbers of cells required to distinguish cancer cells and normal cells: Cancer cells (C) CL1-0
Method: as §6

DNA quadruplexes = experiment: CD analysis of DNA quadruplexes and their complexes; format: binding; conditions: eight DNA quadruplexes
Source text: as §1

HeLa cancer cells = experiment: Fluorescence of stained cells in eppendorf under LED, recorded by camera; format: cell-based; conditions: Cancer cells (H) HeLa
Method: as §6

primary fibroblast = experiment: as above; format: cell-based; conditions: Normal cells (F) primary fibroblast
Method: as §6

DNA duplex [4] = experiment: Absorption analysis of compound/DNA complex; format: binding; conditions: in the presence of a DNA duplex
Method: (§7) Each oligonucleotide described above was mixed with a solution of 10 mM Tris-HCl (pH 7.5) and 150 mM NaCl and was denatured at 90° C. for 2 min. The mixture was then cooled slowly to room temperature and stored at 4° C. for more than 2 days before use. A test compound was then added to this solution to form a compound/DNA complex. The resultant complex was subjected to absorption analysis using a Hitachi U3200 UV-visible spectrophotometer.
(§8) The absorption spectra were taken for compound 2 and its complex with each oligonucleotide. […] In addition, the molar absorption coefficient decreased by ˜15% in the presence of a DNA duplex and ˜35% in the presence of a DNA quadruplex. 10 These spectra changes indicate that compound 2 binds to duplexes and quadruplexes.

DNA quadruplex [5] = experiment: Absorption analysis of compound/DNA complex; format: binding; conditions: in the presence of a DNA quadruplex
Method: as §7, §8

[6] = 0.1 μM compound solution, electrophoresis
[7] = 0.1 μM compound, 10 μM DNA, 254 nm UV light
[8] = 10 mM Tris-HCl pH 7.5, 150 mM NaCl

C[n+]1ccc(C=Cc2ccc3[nH]c4ccc(C=Cc5cc[n+](C)cc5)cc4c3c2)cc1.[I-].[I-] [Compound 2, 3,6-bis-(2-(1-methylpyridinium-4-yl)-vinyl)-9H-carbazole diiodide]
melting temperature of Hum24 quadruplex in the presence of compound (Hum24 quadruplex): increased
concentration of LQ4 quadruplex detected (LQ4; [6]): 0.1 µM
fluorescence band in pre-stained gel (LQ4; [7]): exhibited fluorescence bands
concentration of Oxy28 quadruplex detected (Oxy28; [6]): 0.1 µM
fluorescence band in pre-stained gel (Oxy28; [7]): exhibited fluorescence bands
concentration of Tet12 quadruplex in which a small amount of linear tetramer is detected (Tet12; [6]): 0.25 µM
fluorescence band in pre-stained gel (Tet12; [7]): only exhibited a third fluorescence band
fluorescence bands in post-stained gels [1]: most DNAs exhibited fluorescence bands
fluorescence peak of complex (DNA duplex [2]): ~550 nm
binding preference (DNA quadruplex [3]; DNA quadruplex versus DNA duplex, fluorescence analysis): higher binding preference to a DNA quadruplex than to a DNA duplex
fluorescence peak of complex (DNA quadruplex [3]; complex with a DNA quadruplex, λex≈430 nm): ~575 nm
fluorescence emission in eppendorf (MRC-5 normal cells; 0.5 μM, 1 hour, LED 470 nm): no appreciable fluorescence emission was observed
Numbers of cells required to distinguish cancer cells and normal cells (MRC-5 normal cells; 0.1 μM/30 min): 10,000 (M)
Numbers of cells required to distinguish cancer cells and normal cells (MRC-5 normal cells; 0.5 μM/1 hr): 8,000 (M)
fluorescence emission in eppendorf (CL1-0 cancer cells; 0.5 μM, 1 hour, LED 470 nm): fluorescence emission was clearly observed
Numbers of cells required to distinguish cancer cells and normal cells (CL1-0 cancer cells; 0.1 μM/30 min): 2,000 (C)
Numbers of cells required to distinguish cancer cells and normal cells (CL1-0 cancer cells; 0.5 μM/1 hr): 1,000 (C)
changes in the CD spectra of DNA quadruplexes before and after compound binding (DNA quadruplexes): No appreciable changes
melting point: > 300 °C
Numbers of cells required to distinguish cancer cells and normal cells (HeLa cancer cells; 0.05 μM/1 hr): 2,000 (H)
Numbers of cells required to distinguish cancer cells and normal cells (HeLa cancer cells; 0.1 μM/1 hr): 2,000 (H)
Numbers of cells required to distinguish cancer cells and normal cells (primary fibroblast; 0.05 μM/1 hr): 20,000 (F)
Numbers of cells required to distinguish cancer cells and normal cells (primary fibroblast; 0.1 μM/1 hr): 12,500 (F)
decrease of molar absorption coefficient (DNA duplex [4]): ~15%
absorption peak (DNA duplex [4]; [8]): ~450 nm
decrease of molar absorption coefficient (DNA quadruplex [5]): ~35%
absorption peak (DNA quadruplex [5]; [8]): ~460 nm
